Values after ≈ are worked out from the molar mass of the structure shown.
Columns and labels:
HS27 = experiment: MTT analysis, cytotoxicity against normal cell line; type: cell-based, human; conditions: Homo sapiens, HS27; MTT, 48 hr
BT-20 = experiment: MTT analysis, anticancer activity; type: cell-based, human; conditions: Homo sapiens, BT-20, 48 hr
CPAE = experiment: MTT analysis, cytotoxicity against normal cell line; type: cell-based, bovine; conditions: Bos taurus; MTT, 48 hr
HT-29 = experiment: MTT analysis, anticancer activity; type: cell-based, human; conditions: Homo sapiens, HT-29; MTT, 48 hr
NIH-3T3 [1] = experiment: Adhesion of cell to Matri-Gel; type: cell-based, mouse
Description: (§1) After treating HNP-98701 on tissue culture plate coated with the matrices, cancer cell was attached thereupon. To be specific, 50 μl/ml of […], 2 μg/ml of laminin, 2 μg/ml of collagen and 2 μg/ml of gelatin were coated on the surface of 96-well microplate (Corning Co.) per well. After solidifying for 2 hr, HNP-98701 was added to each well and treated for 1 hr. […] After treating the substances for 1 hr, cancer cell was added to each cell, and it was cultured for 3 hr. […] After culturing these cell lines for 3 hr, they were centrifuged. After collecting biomass only, it was washed with distilled water or PBS buffer solution for three times. […] Then, absorbance was measured at 560-405 nm with automatic Eliza detector (Molecular […] Corp., USA). […] Each experiment was performed for three times repeatedly.

NIH-3T3 [2] = experiment: Adhesion of cell to Laminin; type: cell-based, mouse
Description: as §1

ME-180 = experiment: MTT analysis, anticancer activity; type: cell-based, human; conditions: Homo sapiens, ME-180; MTT, 48 hr
HS-578T = experiment: MTT analysis, anticancer activity; type: cell-based, human; conditions: Homo sapiens, Hs-578T; MTT, 48 hr
A431 = experiment: MTT analysis, anticancer activity; type: cell-based, human; conditions: Homo sapiens, A-431, 48 hr
KATO-III = experiment: MTT analysis, anticancer activity; type: cell-based, human; conditions: Homo sapiens, KATO III; MTT, 48 hr; read-out: IC50 KATO-III
Hep-2 [3] = experiment: MTT analysis, anticancer activity; type: cell-based, human; conditions: Homo sapiens, HEp-2; MTT, 48 hr; read-out: IC50 Hep-2
NIH-3T3 [4] = experiment: Adhesion of cell to Collagen; type: cell-based, mouse
Description: as §1

Hep-2 [5] = experiment: Adhesion of cancer cell to Gelatin; type: cell-based, human
Description: as §1

SK-MEL-28 [6] = experiment: Adhesion of cancer cell to Gelatin; type: cell-based, human
Description: as §1

SK-Hep-1 [7] = experiment: Adhesion of cancer cell to Gelatin; type: cell-based, human
Description: as §1

[8] = tested on: DU-145 prostate cancer cell line; experiment: MTT analysis, anticancer activity; type: cell-based, human; conditions: Homo sapiens, DU-145, 48 hr
Description: (§2) To be specific, SK-Hep-1 cell, which is liver cancer cell line, was added to 96-well microplate (Falcon, USA) with the concentration of 3×10^5 cells/ml by 100 μl per well. Each extracted and separated substance dissolved in DMSO was added to the well by 100 μl for the final concentration to be from 50 μg/ml to 0.0244 μg/ml, with 200 μl of final volume. Each cell was cultured for 48 hr in a culture medium of 37° C. and 5% CO2. After cultivation, 20 μl of phosphate buffer solution containing 5 mg/ml of MTT (3-[4,5-dimethylthiazol-2-yl]-2,5-diphenyltetrazoliumbromide, Sigma Co.) reagent was added to each well, and then cultured for 4 hr. After taking 100 μl of supernant from each culture medium, 100 μl of 0.04N hydrochloric acid-isopropanol was added. After letting alone overnight, absorbance was measured at 560 nm using automatic Eliza detector (Molecular Divices Corp., USA). Anticancer activity of each extracted and separated substance was calculated from the absorbance value by Equation 1 and was expressed in terms of cell.
(§3) Average Existence Rate(%)=(Absorbance of Treated Group)/(Absorbance of Control Group)×100

NCI-H69 = experiment: MTT analysis, anticancer activity; type: cell-based, human; conditions: Homo sapiens, NCI-H69; MTT, 48 hr
CHO = experiment: MTT analysis, cytotoxicity against normal cell line; type: cell-based, Chinese hamster; conditions: Cricetulus griseus, CHO; MTT, 48 hr
NIH-3T3 [9] = experiment: Adhesion of cell to Gelatin; type: cell-based, mouse
Description: as §1

[10] = tested on: SK-Hep-1 liver cancer cell line; experiment: MTT analysis, anticancer activity; type: cell-based, human; conditions: Homo sapiens, SK-HEP1, 48 hr
Description: as §2, §3

Hep-2 [11] = experiment: Adhesion of cancer cell to Collagen; type: cell-based, human
Description: as §1

SK-MEL-28 [12] = experiment: Adhesion of cancer cell to Collagen; type: cell-based, human
Description: as §1

SK-Hep-1 [13] = experiment: Adhesion of cancer cell to Collagen; type: cell-based, human
Description: as §1

MCF-7 = experiment: MTT analysis, anticancer activity; type: cell-based, human; conditions: Homo sapiens, MCF7; MTT, 48 hr; read-out: IC50 MCF-7
SK-Hep-1 [14] = experiment: Adhesion of cancer cell to Matri-Gel; type: cell-based, human
Description: as §1

HS683 = experiment: MTT analysis, anticancer activity; type: cell-based, human; conditions: Homo sapiens, Hs 683, 48 hr
293 = experiment: MTT analysis, cytotoxicity against normal cell line; type: cell-based, human; conditions: Homo sapiens, HEK293; MTT, 48 hr
SK-N-SH = experiment: MTT analysis, anticancer activity; type: cell-based, human; conditions: Homo sapiens, SK-N-SH, 48 hr
NIH-3T3 [15] = experiment: MTT analysis, cytotoxicity against normal cell line; type: cell-based, mouse; conditions: Mus musculus, NIH3T3; MTT, 48 hr
T-47D = experiment: MTT analysis, anticancer activity; type: cell-based, human; conditions: Homo sapiens, T47D, 48 hr
LoVo = experiment: MTT analysis, anticancer activity; type: cell-based, human; conditions: Homo sapiens, LoVo; MTT, 48 hr
T98G = experiment: MTT analysis, anticancer activity; type: cell-based, human; conditions: Homo sapiens, T98G, 48 hr

- IC50 (BT-20): 0.131 µg/mL (≈ 0.241 µM)
- IC50 (HT-29): 0.413 µg/mL (≈ 0.759 µM)
- IC50 (ME-180): 0.108 µg/mL (≈ 0.198 µM)
- IC50 (HS-578T): 0.469 µg/mL (≈ 0.862 µM)
- IC50 (A431): 0.0675 µg/mL (≈ 0.124 µM)
- IC50 (KATO-III): 0.342 µg/mL (≈ 0.628 µM)
- IC50 (Hep-2 [3]): 0.087 µg/mL (≈ 0.16 µM)
- IC50 [8]: > 50 µg/mL
- IC50 (NCI-H69): 0.168 µg/mL (≈ 0.308 µM)
- IC50 [10]: 0.282 µg/mL (≈ 0.518 µM)
- IC50 (MCF-7): 0.134 µg/mL (≈ 0.247 µM)
- IC50 (HS683): 0.205 µg/mL (≈ 0.377 µM)
- IC50 (SK-N-SH): 0.207 µg/mL (≈ 0.381 µM)
- IC50 (T-47D): 0.255 µg/mL (≈ 0.469 µM)
- IC50 (LoVo): 0.0538 µg/mL (≈ 0.099 µM)
- IC50 (T98G): 1.61 µg/mL (≈ 2.97 µM)
Structure (SMILES): COc1cccc2c1C(=O)c1c(O)c3c(c(O)c1C2=O)C[C@@](O)(C(=O)CO)C[C@@H]3O[C@H]1C[C@H](N)[C@H](O)[C@H](C)O1 [Adriamycin, adriamycin (doxorubicin)]
- IC50 (HS27): 0.218 µg/mL (≈ 0.401 µM)
- IC50 (CPAE): 0.0208 µg/mL (≈ 0.0383 µM)
- Adhesion NIH-3T3 (%) (NIH-3T3 [1]; 0.1 μg/ml): 115.00%
- Adhesion NIH-3T3 (%) (NIH-3T3 [1]; 1 μg/ml): 108.65%
- Adhesion NIH-3T3 (%) (NIH-3T3 [1]; 10 μg/ml): 104.23%
- Adhesion NIH-3T3 (%) (NIH-3T3 [2]; 0.1 μg/ml): 107.38%
- Adhesion NIH-3T3 (%) (NIH-3T3 [2]; 1 μg/ml): 103.07%
- Adhesion NIH-3T3 (%) (NIH-3T3 [2]; 10 μg/ml): 91.63%
- Adhesion NIH-3T3 (%) (NIH-3T3 [4]; 0.1 μg/ml): 111.98%
- Adhesion NIH-3T3 (%) (NIH-3T3 [4]; 1 μg/ml): 109.97%
- Adhesion NIH-3T3 (%) (NIH-3T3 [4]; 10 μg/ml): 111.13%
- Adhesion Hep-2 (%) (Hep-2 [5]; 0.1 μg/ml): 104.27%
- Adhesion Hep-2 (%) (Hep-2 [5]; 1 μg/ml): 98.27%
- Adhesion Hep-2 (%) (Hep-2 [5]; 10 μg/ml): 97.73%
- Adhesion SK-MEL-28 (%) (SK-MEL-28 [6]; 0.1 μg/ml): 96.39%
- Adhesion SK-MEL-28 (%) (SK-MEL-28 [6]; 1 μg/ml): 97.42%
- Adhesion SK-MEL-28 (%) (SK-MEL-28 [6]; 10 μg/ml): 97.21%
- Adhesion SK-Hep-1 (%) (SK-Hep-1 [7]; 0.1 μg/ml): 85.77%
- Adhesion SK-Hep-1 (%) (SK-Hep-1 [7]; 1 μg/ml): 76.37%
- Adhesion SK-Hep-1 (%) (SK-Hep-1 [7]; 10 μg/ml): 33.29%
- IC50 (CHO): 5.22 µg/mL (≈ 9.61 µM)
- Adhesion NIH-3T3 (%) (NIH-3T3 [9]; 0.1 μg/ml): 108.67%
- Adhesion NIH-3T3 (%) (NIH-3T3 [9]; 1 μg/ml): 108.86%
- Adhesion NIH-3T3 (%) (NIH-3T3 [9]; 10 μg/ml): 105.81%
- Adhesion Hep-2 (%) (Hep-2 [11]; 0.1 μg/ml): 91.10%
- Adhesion Hep-2 (%) (Hep-2 [11]; 1 μg/ml): 93.11%
- Adhesion Hep-2 (%) (Hep-2 [11]; 10 μg/ml): 88.85%
- Adhesion SK-MEL-28 (%) (SK-MEL-28 [12]; 0.1 μg/ml): 94.27%
- Adhesion SK-MEL-28 (%) (SK-MEL-28 [12]; 1 μg/ml): 94.49%
- Adhesion SK-MEL-28 (%) (SK-MEL-28 [12]; 10 μg/ml): 94.71%
- Adhesion SK-Hep-1 (%) (SK-Hep-1 [13]; 0.1 μg/ml): 98.83%
- Adhesion SK-Hep-1 (%) (SK-Hep-1 [13]; 1 μg/ml): 97.89%
- Adhesion SK-Hep-1 (%) (SK-Hep-1 [13]; 10 μg/ml): 103.28%
- Adhesion SK-Hep-1 (%) (SK-Hep-1 [14]; 0.1 μg/ml): 99.04%
- Adhesion SK-Hep-1 (%) (SK-Hep-1 [14]; 1 μg/ml): 95.93%
- Adhesion SK-Hep-1 (%) (SK-Hep-1 [14]; 10 μg/ml): 88.74%
- IC50 293: < 0.008 µg/mL
- IC50 (NIH-3T3 [15]): 0.496 µg/mL (≈ 0.913 µM)
